The values that follow come from patent US9447038B2 (SANOFI, priority 2012, dated 2016).

Each structure is given as a SMILES string. Structures can show the parent of a compound that is named as a salt.

human CXCR3-A receptor, sequence (P49682 whole entry): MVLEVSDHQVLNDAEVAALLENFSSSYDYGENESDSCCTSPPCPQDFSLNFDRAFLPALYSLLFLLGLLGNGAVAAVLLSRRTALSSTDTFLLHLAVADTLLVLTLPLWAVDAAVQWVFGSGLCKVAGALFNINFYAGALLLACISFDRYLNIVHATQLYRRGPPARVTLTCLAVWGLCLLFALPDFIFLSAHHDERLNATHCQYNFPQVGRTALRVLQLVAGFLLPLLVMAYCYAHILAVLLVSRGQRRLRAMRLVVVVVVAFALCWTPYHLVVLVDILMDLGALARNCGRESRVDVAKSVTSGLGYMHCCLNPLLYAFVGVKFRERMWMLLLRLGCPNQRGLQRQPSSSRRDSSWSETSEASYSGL

The experiment concerns the target human CXCR3-A receptor (Homo sapiens (Human), UniProt P49682). Put plainly: 125I-CXCL10 competition radioligand binding assay.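 Further: One-hour incubation of membranes with tracer, bound radioligand separated by glass fibre filtration, IC50 derived from four-parameter nonlinear fit of competition curves.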 Conditions: displacement of 125I-CXCL10 from membranes of CHO cells expressing human recombinant CXCR3-A. For orientation: Displacement assays read how much labelled ligand stays bound in the presence of the test substance.
For `CCCN(Cc1ccc(OCCN2C(=O)CCC2=O)c(OC)c1)C(CC(=O)O)c1cc(C)sc1C` (stereo not drawn) [Example 204, 3-(2,5-Dimethyl-thiophen-3-yl)-3-({4-[2-(2,5-dioxo-pyrrolidin-1-yl)-ethoxy]-3-methoxy-benzyl}-propyl-amino)-propionic acid; hydrochloride], the 50% inhibitory concentration (IC50) was 197 nM.

Take `CCc1cc(CN(CC2CC2)C(CC(=O)O)c2ccc(Cl)c(Cl)c2)ccc1OCCN1C(=O)CCC1=O` (stereo not drawn) [Example 96, 3-(Cyclopropylmethyl-{4-[2-(2,5-dioxo-pyrrolidin-1-yl)-ethoxy]-3-ethyl-benzyl}-amino)-3-(3,4-dichloro-phenyl)-propionic acid]: the IC50 came to 78 nM.

Consider `Cc1cc(CN(CC2CC2)C(CC(=O)O)c2ccc(Cl)c(F)c2)ccc1OCCN1C(=O)CCC1=O` (stereo not drawn) [Example 74, 3-(4-Chloro-3-fluoro-phenyl)-3-(cyclopropylmethyl-{4-[2-(2,5-dioxo-pyrrolidin-1-yl)-ethoxy]-3-methyl-benzyl}-amino)-propionic acid], for which the IC50 stood at 34 nM.

In the case of `CCc1cc(CN(CC2CCCC2)C(CC(=O)O)c2ccc(Cl)c(Cl)c2)ccc1OCCN1C(=O)CCC1=O` (stereo not drawn) [Example 100, 3-(Cyclopentylmethyl-{4-[2-(2,5-dioxo-pyrrolidin-1-yl)-ethoxy]-3-ethyl-benzyl}-amino)-3-(3,4-dichloro-phenyl)-propionic acid], the half-maximal inhibitory concentration (IC50) was determined as 464 nM.

Consider `CCCN(Cc1ccc(OCCN2C(=O)CCC2=O)c(CC)c1)C(CC(=O)O)c1ccc(Cl)cc1` (stereo not drawn) [Example 85, 3-(4-Chloro-phenyl)-3-({4-[2-(2,5-dioxo-pyrrolidin-1-yl)-ethoxy]-3-ethyl-benzyl}-propyl-amino)-propionic acid], for which the IC50 is 58 nM.

`CCc1cc(CN(CC2CC2)C(CC(=O)O)c2ccc(Cl)c(F)c2)ccc1OCCN1C(=O)CCC1=O` (stereo not drawn) [Example 90, 3-(4-Chloro-3-fluoro-phenyl)-3-(cyclopropylmethyl-{4-[2-(2,5-dioxo-pyrrolidin-1-yl)-ethoxy]-3-ethyl-benzyl}-amino)-propionic acid]: the IC50 was 50 nM.

For `CCCCN(Cc1ccc(OCCN2C(=O)CCC2=O)c(C)c1)C(CC(=O)O)c1ccc2c(c1)CCO2` (stereo not drawn) [Example 145, 3-(Butyl-{4-[2-(2,5-dioxo-pyrrolidin-1-yl)-ethoxy]-3-methyl-benzyl}-amino)-3-(2,3-dihydro-benzofuran-5-yl)-propionic acid], the half-maximal inhibitory concentration (IC50) was found to be 38 nM.

In the case of `CCCCN(Cc1ccc(CCCN2C(=O)CCC2=O)c(OC)c1)C(CC(=O)O)c1ccc2c(c1)CCO2` (stereo not drawn) [Example 140, 3-(Butyl-{4-[3-(2,5-dioxo-pyrrolidin-1-yl)-propyl]-3-methoxy-benzyl}-amino)-3-(2,3-dihydro-benzofuran-5-yl)-propionic acid], the half-inhibitory concentration (IC50) came out at 51 nM.

For `Cc1cc(CN(CC2CCCCC2)[C@H](CC(=O)O)c2ccc(Cl)cc2)ccc1OCCN1C(=O)CN(C)C1=O` [Example 31, (R)-3-(4-Chloro-phenyl)-3-(cyclohexylmethyl-{3-methyl-4-[2-(3-methyl-2,5-dioxo-imidazolidin-1-yl)-ethoxy]-benzyl}-amino)-propionic acid], the IC50 was determined as 416 nM.

As for `COc1cc(CN(CC2CC2)[C@H](C(=O)O)c2ccc(Cl)c(Cl)c2)ccc1OCCN1C(=O)CCC1=O` [Example 108, (S)-(Cyclopropylmethyl-{4-[2-(2,5-dioxo-pyrrolidin-1-yl)-ethoxy]-3-methoxy-benzyl}-amino)-(3,4-dichloro-phenyl)-acetic acid], the half-inhibitory concentration (IC50) came out at 200 nM.

For `Cc1cc(CN(CC(C)C)C2c3ccc(Cl)cc3CC2C(=O)O)ccc1OCCN1C(=O)CCC1=O` (stereo not drawn) [Example 174, 5-Chloro-1-({4-[2-(2,5-dioxo-pyrrolidin-1-yl)-ethoxy]-3-methyl-benzyl}-isobutyl-amino)-indan-2-carboxylic acid], the concentration for half-maximal inhibition (IC50) was found to be 800 nM.

As for `Cc1cc(CN(CC2CCCCC2)C(CC(=O)O)c2ccc3c(c2)CCO3)ccc1OCCN1C(=O)CCC1=O` (stereo not drawn) [Example 149, 3-(Cyclohexylmethyl-{4-[2-(2,5-dioxo-pyrrolidin-1-yl)-ethoxy]-3-methyl-benzyl}-amino)-3-(2,3-dihydro-benzofuran-5-yl)-propionic acid], the 50% inhibitory concentration (IC50) is 72 nM.

The IC50 is the concentration that inhibits the measured activity by half.
